Data as given in US20230115176A1 (Ra Pharmaceuticals, Inc., priority 2019, published 2023).
Values after ≈ are worked out from the molar mass of the structure shown.

Experiments:
Human C5 = target: T1, Human C5 (Homo sapiens, UniProt P01031); test: Red blood cell (RBC) hemolysis assay, luminescent (Example 13, Table 22); assay type: cell-based; details: sheep EA cells, […] C5-depleted human serum, 0.5 nM human C5, 1 hour 37° C., luminescence; further: 1.5% C5-depleted human serum
T1 construct: purchased Complement Technology
T1 sequence (P01031 19-1676): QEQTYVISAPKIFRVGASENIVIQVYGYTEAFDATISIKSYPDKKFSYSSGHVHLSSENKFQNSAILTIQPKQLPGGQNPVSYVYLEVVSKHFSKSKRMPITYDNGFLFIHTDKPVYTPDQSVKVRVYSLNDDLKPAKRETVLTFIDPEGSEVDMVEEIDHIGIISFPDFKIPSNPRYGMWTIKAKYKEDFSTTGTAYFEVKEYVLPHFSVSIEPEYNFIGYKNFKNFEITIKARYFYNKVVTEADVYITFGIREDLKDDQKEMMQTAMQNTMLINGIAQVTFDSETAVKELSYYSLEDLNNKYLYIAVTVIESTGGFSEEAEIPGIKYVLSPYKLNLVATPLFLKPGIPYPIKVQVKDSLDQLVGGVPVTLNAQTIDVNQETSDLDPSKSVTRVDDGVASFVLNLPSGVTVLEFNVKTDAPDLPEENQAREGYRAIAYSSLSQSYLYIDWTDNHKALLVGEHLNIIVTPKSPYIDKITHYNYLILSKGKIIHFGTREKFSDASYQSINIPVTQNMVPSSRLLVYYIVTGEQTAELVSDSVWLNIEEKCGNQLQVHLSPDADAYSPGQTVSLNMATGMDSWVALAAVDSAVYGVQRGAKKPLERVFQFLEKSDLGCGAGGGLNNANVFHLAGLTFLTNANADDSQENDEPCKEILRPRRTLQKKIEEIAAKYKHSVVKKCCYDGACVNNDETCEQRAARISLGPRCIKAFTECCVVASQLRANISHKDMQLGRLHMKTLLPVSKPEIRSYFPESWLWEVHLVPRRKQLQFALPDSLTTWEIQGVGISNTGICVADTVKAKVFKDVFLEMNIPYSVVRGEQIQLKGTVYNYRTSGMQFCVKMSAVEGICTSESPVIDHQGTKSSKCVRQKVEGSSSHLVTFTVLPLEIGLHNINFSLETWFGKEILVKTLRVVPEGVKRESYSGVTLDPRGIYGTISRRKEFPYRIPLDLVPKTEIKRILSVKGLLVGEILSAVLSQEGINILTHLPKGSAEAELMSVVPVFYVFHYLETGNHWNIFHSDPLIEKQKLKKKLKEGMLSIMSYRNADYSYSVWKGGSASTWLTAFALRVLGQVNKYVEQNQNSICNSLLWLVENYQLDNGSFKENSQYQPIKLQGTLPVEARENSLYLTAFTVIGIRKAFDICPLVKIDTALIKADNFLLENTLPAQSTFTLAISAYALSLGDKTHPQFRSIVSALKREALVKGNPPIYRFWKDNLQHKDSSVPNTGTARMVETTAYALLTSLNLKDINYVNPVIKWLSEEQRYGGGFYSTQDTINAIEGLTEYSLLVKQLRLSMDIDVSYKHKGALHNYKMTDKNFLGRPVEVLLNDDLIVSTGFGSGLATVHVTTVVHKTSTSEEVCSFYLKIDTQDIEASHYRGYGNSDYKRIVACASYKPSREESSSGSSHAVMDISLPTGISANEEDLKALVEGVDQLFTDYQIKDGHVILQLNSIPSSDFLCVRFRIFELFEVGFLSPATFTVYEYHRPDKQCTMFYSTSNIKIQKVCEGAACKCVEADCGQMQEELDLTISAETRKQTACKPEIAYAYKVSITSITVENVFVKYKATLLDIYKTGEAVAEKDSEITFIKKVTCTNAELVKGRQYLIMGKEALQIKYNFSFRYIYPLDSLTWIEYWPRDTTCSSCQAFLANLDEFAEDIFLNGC
Source text: (§1) Compound CU0136 is a racemic mixture of Compound CU0186 and CU0187. Numbers in parenthesis following compound numbers indicate alternate enantiomers (as distinguished by retention time during chromatographical separation).

[1] = target: human C5 complement protein (Homo sapiens, UniProt P01031); test: Surface plasmon resonance (SPR), immobilized human C5, 37° C. (Example 12, Table 21); assay type: binding; details: where a range of compound concentrations were analyzed, the lowest value obtained
Sequence of human C5 complement protein (P01031 19-1676): as above
Source text: as §1

[2] = Kinetic solubility in PBS pH 7.4, HPLC-UV (Example 21, Table 27); assay type: physicochemical; details: phosphate buffered saline, aqueous buffer, kinetic from dmso stock, 0.5 M PBS, shaken minimum 24 h at approximately 25° C., HPLC-UV 270 nm
How it was run: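 10 mM DMSO stock diluted into 0.05 M PBS pH 7.4 (5% DMSO final), in triplicate, shaken ≥24 h at ~25 °C, then filtered by centrifugation. Supernatant concentration by HPLC-UV at 270 nm against external DMSO standards (15.6–500.0 μM).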

Structure (SMILES) | IC50 (Human C5) [nM] | Kd [1] [nM] | solubility kinetic [2] [µM]
CCCCCOc1cc(N2CCCN(Cc3ccc(CC(=O)N4CCOC(COC)C4)cc3OC)C2=O)ccc1OC (stereo not drawn) [CU0105] | 130 | 1.9 | 427 (≈ 249 µg/mL)
CCCCCOc1cc(N2CCCN(Cc3cccc4c3c(F)cn4CC(=O)N(C)C)C2=O)ccc1OC [CU0232] | 21.6 | 1.3 | < 10
CCCCCOc1cc(N2CCCN(Cc3ccc(CC(=O)N4CCCN(C)CC4)cc3OC)C2=O)ccc1OC [CU0104] | 23.8 | 0.6 | 269 (≈ 152 µg/mL)
CCCCCOc1cc(N2CCCN(Cc3ccc(CC(=O)N4CC(=O)N(C)C(C)C4)cc3OC)C2=O)ccc1OC (stereo not drawn) [CU0107] | 38 | 2 | 266 (≈ 154 µg/mL)
CCCCCOc1cc(N2CCCN(Cc3cccc4c3c(C)cn4CC(=O)N(C)C)C2=O)ccc1OC [CU0231] | 20.3 | 0.9 | 64 (≈ 33.3 µg/mL)
CCCCCOc1cc(N2CCCN(Cc3ccnc4c3ccn4CC(=O)N3CCN(C)C(=O)C3)C2=O)ccc1C1CC1 [CU0061] | 52.3 | 13 | –
CCCCCOc1cc(N2CCCN(Cc3ccnc4c3ccn4CC(=O)N3CCOCC3)C2=O)ccc1OC [CU0043] | 29.5 | 16.5 | –
CCCCCOc1cc(N2CCCN(Cc3ccc(CC(=O)NC4CCN(C(C)=O)C4)cc3OC)C2=O)ccc1OC (stereo not drawn) [CU0110] | 16.4 | 2 | 295 (≈ 171 µg/mL)
CCCCCOc1cc(N2CCCN(Cc3ccc(CC(=O)N4CCCOCC4)cc3OC)C2=O)ccc1OC [CU0100] | 21 | 2.1 | –
CCCCCOc1cc(N2CCCN(Cc3ccc(CC(=O)N[C@H]4CN(C)C[C@H]4F)cc3OC)C2=O)ccc1OC [CU0106] | 43.9 | 2 | 453 (≈ 259 µg/mL)
CCCCCOc1cc(N2CCCN(Cc3ccnc4c3ccn4CC(=O)N3CCN(CCOC)CC3)C2=O)ccc1OC [CU0057] | 22.4 | 18 | –
CCCCCOc1cc(N2CCCN(Cc3ccnc4c3ccn4CC(=O)N3CCN(C4CC4)CC3)C2=O)ccc1OC [CU0056] | 48.8 | 23 | –
CCCCCOc1cc(N2CCCN(Cc3ccnc4c3ccn4CC(=O)N3CCOC(COC)C3)C2=O)ccc1OC (stereo not drawn) [CU0048] | 57.3 | 18.5 | –
CCCC(F)(F)COc1cc(N2CCCN(Cc3ccc(CC(=O)N4CCCOCC4)cc3OC)C2=O)ccc1OC [CU0112] | 25.9 | 2.6 | –
CCCCCOc1cc(N2CCCN(Cc3ccc(CC(=O)N4CCCC4)cc3Cl)C2=O)ccc1OC [CU0118] | 35.3 | 12.8 | –
CCCCCOc1cc(N2CCCN(Cc3ccnc4c3ccn4CC(=O)N3CC[C@@H](OC)C3)C2=O)ccc1OC [CU0041] | 55.2 | 17 | –
COc1ccc(N2CCCN(Cc3cccc4c3ccn4CC(=O)N(C)C)C2=O)cc1OCCCC(C)(F)F [CU0027] | 22.5 | 14 | –
CCCCCOc1cc(N2CCCN(Cc3ccc(CC(=O)N[C@@H]4CNC[C@H]4F)cc3OC)C2=O)ccc1OC [CU0108] | 19.5 | 1.2 | > 500
CCCCCOc1cc(N2CCCN(Cc3cccc4c3ccn4CC(=O)N3CCNC(=O)C3)C2=O)ccc1OC [CU0028] | 8.9 | 5 | –
CCCCCOc1cc(N2CCCN(Cc3ccc(CC(=O)N4CCOCC4)cc3Cl)C2=O)ccc1OC [CU0116] | 23.2 | 10.3 | –
CCCCCOc1cc(N2CCN(Cc3cc(F)ccc3OC)C2=O)ccc1OC [CU0002] | 42 | 83.5 | –
CCCCCOc1cc(N2CCCN(Cc3ccc(CCC(=O)N(CC)CC)cc3OC)C2=O)ccc1OC [CU0008] | 62.9 | 6.5 | –
CCCCCOc1cc(N2CCCN(Cc3cccnc3OC)C2=O)ccc1OC [CU0018] | 40.6 | 27.5 | –
CCCCCOc1cc(N2CCCN(Cc3ccc(CC(=O)NC4CCN(C(C)C)CC4)cc3OC)C2=O)ccc1OC [CU0109] | 18.6 | 1.1 | > 500
CCCCCOc1cc(N2CCCN(Cc3ccc(CN(CC)CC)cc3OC)C2=O)ccc1OC [CU0121] | 38.9 | 27.5 | –
CCCCCOc1cc(N2CCCN(Cc3ccccc3Cl)C2=O)ccc1OC [CU0010] | 34.9 | 74.5 | –

Structure (SMILES) | IC50 (Human C5) [nM] | Kd [1] [nM] | solubility kinetic [2] [µM]
CCCCCOc1cc(N2CCCN(Cc3cccc4c3ccn4CC3(O)CCN(C)CC3)C2=O)ccc1OC [CU0022] | 17.1 | 2.9 | –
CCCCCOc1cc(N2CCCN(Cc3cccc4c3ccn4CC(=O)N3CCOC(C)(C)C3)C2=O)ccc1OC [CU0030] | 26.9 | 1.8 | –
CCCCCOc1cc(N2CCCN(Cc3ccnc4c3ccn4CC(=O)N3CCOC(C)(COC)C3)C2=O)ccc1OC (stereo not drawn) [CU0049] | 44.7 | 21 | –
CCCCCOc1cc(N2CCCN(Cc3ccnc4c3ccn4CC(=O)N(C)C)C2=O)ccc1C1CC1 [CU0036] | 121 | 25 | –
CCCCCOc1cc(N2CCN(Cc3ccc(C(C)(C)O)cc3OC)C2=O)ccc1OC [CU0004] | 12.1 | 10.5 | –
CCCCCOc1cc(N2CCCN(Cc3cc(F)ccc3Cl)C2=O)ccc1OC [CU0014] | 77.6 | 174 | –
CCCCCOc1cc(N2CCN(Cc3cccc4c3OCO4)C2=O)ccc1OC [CU0064] | 799 | 394 | –
CCCCCOc1cc(N2CCN(Cc3ccccc3OC)C2=O)ccc1OC [CU0001] | 35.6 | 29.5 | –
CCCCCOc1cc(N2CCCN(Cc3ccc(CCN4CCOCC4)cc3OC)C2=O)ccc1OC [CU0124] | 26 | 6.4 | –
CCCCCOc1cc(N2CCN(Cc3cccnc3OC)C2=O)ccc1OC [CU0017] | 106 | 188 | –
CCCCCOc1cc(N2CCCN(Cc3cccc4c3ccn4CC(=O)N(C)C)C2=O)ccc1OC [CU0025] | 13.6 | 5 | –
CCCC(F)(F)COc1cc(N2CCCN(Cc3ccc(CC(=O)N(C)C)cc3OC)C2=O)ccc1OC [CU0111] | 25.2 | 3.4 | –
CCCCCOc1cc(N2CCCN(Cc3cccc4c3ccn4CC(=O)N3CCOC(COC)C3)C2=O)ccc1OC (stereo not drawn) [CU0031] | 15.7 | 6 | –
CCCCCOc1cc(N2CCCN(Cc3cccc4c3ccn4Cc3nncn3C)C2=O)ccc1OC [CU0024] | 12.9 | 5 | –
CCCCCOc1cc(N2CCCN([C@@H](C)c3ccnc4c3ccn4CC(=O)N(C)C)C2=O)ccc1OC [CU0037] | 47.1 | 15.5 | –
CCCCCOc1cc(N2CCCN(Cc3ccnc4c3ccn4CC(=O)N3CCNC(=O)C3)C2=O)ccc1OC [CU0059] | 32.9 | 13.5 | –
CCCCCOc1cc(N2CCCN(Cc3cc(-c4cnn(C5COC5)c4)ccc3OC)C2=O)ccc1OC [CU0129] | 61.5 | 23.8 | –
CCCCCOc1cc(N2CCCN(Cc3ccnc4c3ccn4C3CCN(C)C3=O)C2=O)ccc1OC (single isomer, unassigned) [CU0039(1)] | 30 | 28 | –
CCCCCOc1cc(N2CCCN(Cc3ccc(CCN4CCCC4)cc3OC)C2=O)ccc1OC [CU0123] | 17.1 | 4.2 | 404 (≈ 206 µg/mL)
CCCCCOc1cc(N2CCCN(Cc3ccnc4c3ccn4CC(=O)N3CCOC(CN4CCCC4)C3)C2=O)ccc1OC (stereo not drawn) [CU0051] | 45.9 | 8 | –
CCCCCOc1cc(N2CCCN(Cc3cc(F)ccc3OC)C2=O)ccc1OC [CU0003] | 28.4 | 14 | –
CCCCCOc1cc(N2CCCN(Cc3ccc(CC(=O)N4CCCOCC4)cc3Cl)C2=O)ccc1OC [CU0117] | 32.5 | 8.3 | –
CCCCCOc1cc(N2CCCN(Cc3ccnc4c3ccn4CC(=O)N(C)C)C2=O)ccc1OC [CU0035] | 30.8 | 33.5 | –
CCCCCOc1cc(N2CCCN(Cc3cccc(F)c3Cl)C2=O)ccc1OC [CU0012] | 128 | 326 | –
CCCCCOc1cc(N2CCCN(Cc3ccc(CC(=O)N(C)C)cc3Cl)C2=O)ccc1OC [CU0115] | 27.9 | 7.8 | –
CCCCCOc1cc(N2CCCN(Cc3cccc4c3OCO4)C2=O)ccc1OC [CU0065] | 123 | 370 | –
